Measured values taken from US20130078260A1, “COMPOUNDS TARGETING THE VEGF AND/OR HIF PATHWAY SUCH AS SORAFENIB OR VATALANIB FOR USE IN THE TREATMENT OF OTITIS MEDIA” (MEDICAL RESEARCH COUNCIL, priority 2010, published 2013).
Like-named read-outs stand apart in the source and are kept apart here. Marks after values point to notes of the source that are not given here.

Key:
Jbo/+ mice = assay: Click-evoked Auditory Brain Stem response (ABR) change in drug-treated Junbo (Jbo/+) mice, chronic otitis media model; format: in vivo, mouse
Procedure: (§1) Drug treatment, ABR and analysis of inflammation. […] The sham
(§2) Jbo/+ group was matched for age, gender and pre-trial ABR (30-60 dB) and received vehicle alone. A click-evoked ABR (Zheng, Q. Y., et al. (1999) Hearing Res. 130, 94-107) was measured at the beginning and end of the trial (or after 3 wk in the 50 mg/kg PTK787 trial). For ABR with recovery, anesthesia was induced by i.p. injection with a mixture of 10 mg/kg xylazine and 100 mg/kg ketamine and was reversed by 5 mg/kg atipamezole hydrochloride. Histology was assessed at 4 wk in both PTK787 trials.
(§3) Statistics. Student t-tests or Mann Whitney U tests (for ABR measurements where interval data was in 5 dB increments) were performed and test values p<0.05 were considered significant. Percentages were arcsine transformed before using t-tests. In the drug trials, 1-tailed tests were used compare drug and sham-treated groups, otherwise 2-tailed tests were used.

[1] = test system: Jbo/+ mice middle ear mucosa; assay: Histological analysis of inflammation in middle ear mucosa of drug-treated Jbo/+ mice; format: in vivo, mouse
Procedure: as §1, §2
Image capture and analysis. Digital images were captured on an Olympus BX51 microscope using ×20, ×40 or ×60 Plan Achromat objectives with neutral density filter, on a ColorView Soft Imaging System software using automatic exposures. In the drug trials, H&E stained sections for image analysis were scanned at ×400 magnification on a Nanozoomer digital pathology system (Hamamatsu Photonics). Eardrum thickness and the thickness of the mucosa along its medial surface (avoiding the cochlea and the region adjacent to the opening of the Eustachian tube) were averaged from 5 measurements. The number of capillaries and lymphatic vessels and their respective diameters were measured in a standardized 1000 μm length of medial mucosa. The treatment and genotype were blinded from the assessor when making the morphological measurements.
as §3

mice = conditions: mouse, in vivo, po
From the text: as §1

WT mice = assay: Click-evoked ABR change in drug-treated WT littermate mice; format: in vivo, mouse
Procedure: as §1, §2, §3

[2] = both 50 mg/kg and 75 mg/kg trials, 4 wk, vs sham

CO[C@H]1/C=C\C=C(/C)C(=O)NC2=CC(=O)C(NCCN(C)C)=C(C[C@@H](C)C[C@H](OC)[C@H](O)[C@@H](C)/C=C(\C)[C@@H]1OC(N)=O)C2=O [17-DMAG, 17-dimethylaminoethylamino-17-demethoxy-geldanamycin]
Effect on hearing loss (Jbo/+ mice; Jbo/+ mice, 10 mg/kg, 28 d treatment, vs sham (FIG. 6E)): moderated hearing loss

CNC(=O)c1cc(Oc2ccc(NC(=O)Nc3ccc(Cl)c(C(F)(F)F)c3)cc2)ccn1 [BAY 43-9006]
ΔABR (dB) Jbo/+ drug (Jbo/+ mice; Jbo/+ mice, 30 mg/kg, 15 days, oral gavage once a day, mean ± SEM (n)): 0.9 ± 1.5 (11)^e dB | Effect on hearing loss (Jbo/+ mice; Jbo/+ mice, treatment for 2 wk, vs sham control): reduced hearing loss | Lymphatic vessel dilation ([1]; 2 wk trial, n=11, sham 14.2±0.9 μm, P=0.0072): 9.9±1.0 μm | Tolerability / adverse signs (mice; Junbo (Jbo/+) mutant and WT, 2 wk): not as well tolerated as PTK787 | Tolerability / adverse signs (mice): mice suddenly became piloerect | ΔABR (dB) WT (WT mice; 30 mg/kg, 15 days, mean ± SEM (n)): −2.0 ± 1.2 (5) dB

Clc1ccc(Nc2nnc(Cc3ccncc3)c3ccccc23)cc1 [PTK787/ZK 222584]
Mucosal thickening ([1]; 50 mg/kg trial, 4 wk, vs sham): moderated mucosal thickening | Lymphatic vessel dilation ([1]; 75 mg/kg dosage group, 4 wk, vs sham): moderated | Angiogenesis (blood vessel number in mucosa) [1, 2]: reduced | Lymphatic vessel number [1, 2]: reduced | ΔABR (dB) WT (WT mice; 50 mg/kg, 21 days, mean ± SEM (n)): −0.6 ± 1.1 (8) dB | ΔABR (dB) WT (WT mice; 75 mg/kg, 28 days, mean ± SEM (n)): 0.0 ± 0.9 (8) dB

CN(CCOc1ccc(CC2SC(=O)NC2=O)cc1)c1ccccn1 (stereo not shown) [Rosiglitazone]
ΔABR (dB) Jbo/+ drug (Jbo/+ mice; Jbo/+ mice, 20 mg/kg, 28 days, mean, SEM (n) printed in the row below): 9.7 dB | ΔABR (dB) WT (WT mice; 20 mg/kg, 28 days, mean, SEM (n) printed in the row below): 1.4 dB

CCN(CC)CCNC(=O)c1c(C)[nH]c(/C=C2\C(=O)Nc3ccc(F)cc32)c1C [SU-11248]
Effect on hearing loss (Jbo/+ mice; Junbo mice, 28 d treatment, vs sham (FIG. 6B)): moderates hearing loss
